Measured values: PMC6015222, “Targeting Phosphopeptide Recognition by the Human BRCA1 Tandem BRCT Domain to Interrupt BRCA1-Dependent Signaling” (Cell Chemical Biology, 2018)

Tests used:
cells = experiment: Cellular effects of Bractoppin, summary over the cell assays; type: cell-based
TOPBP1 foci = experiment: Radiation-induced TOPBP1 foci, U2OS cells; type: cell-based; conditions: 100 μM added 6 h after irradiation
MCPH1 tBRCT 2/3 = target: T1, MCPH1 tBRCT 2/3 (Homo sapiens, UniProt Q8NEM0); experiment: Competitive MST selectivity: MCPH1 tBRCT; type: binding
T1 construct: MCPH1 tBRCT 2/3 residues 640-835; 6x His (N); made in house; host or cells: E. coli BL21(DE3)
T1 sequence (Q8NEM0 640-835): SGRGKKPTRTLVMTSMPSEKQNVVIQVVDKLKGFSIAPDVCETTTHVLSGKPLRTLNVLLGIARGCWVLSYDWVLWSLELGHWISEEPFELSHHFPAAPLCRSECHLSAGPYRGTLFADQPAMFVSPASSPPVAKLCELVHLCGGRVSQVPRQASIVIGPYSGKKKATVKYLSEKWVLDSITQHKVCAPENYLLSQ
Description: Protein domains used in the assay were labeled with NT-647-NHS fluorescent dye using the Monolith NT™ Protein Labeling Kit (NanoTemper Technologies). Assays were carried out in 20mM Tris buffer, pH 7.4, with 200mM NaCl, 0.05% Tween-20 and 2mM DTT. For the direct binding assay, 10μl of labeled protein at a final concentration of 20nM was mixed with 10μl of test compound and incubated on ice for 10 min. For the competitive assay, 10μl of labeled protein at a final concentration of 20nM was mixed with 2μM cognate peptide substrate at the EC80 concentration determined by prior titration using a 16-point serial dilution by direct-binding MST. For both assays, samples prepared as above were centrifuged at 15000 rpm at 4°C for 10 min and 4μl of the supernatant was loaded into premium glass capillaries (NanoTemper Technologies). MST analysis was performed at MST power of 40% and LED power of 80%, at 22°C temperature using a Monolith NT.115 (NanoTemper Technologies). An initial “Capillary Scan” was performed to scan for fluorescence across the length of the capillary tray to determine the exact position of each capillary before the MST measurement was started. Test compounds were assayed at 16 different concentrations by serial dilution, and data were analysed using NanoTemper analysis software. Kd values were determined using “T-jump + Thermophoresis” settings. […]

[1] = target: T2, BRCA1 tBRCT / BACH1 unimolecular FRET biosensor (Homo sapiens, UniProt P38398); experiment: Unimolecular FRET biosensor assay in HEK293 cells (sensitized emission, acceptor photobleaching); type: cell-based; conditions: 100 μM, 24 hr, 16 Gy
T2 construct: the BRCA1 tBRCT domain (aa 1643-1862); expressed in transfected cells
Description: HEK293 cells expressing the stably integrated FRET sensor in a tetracycline-inducible system were used. 3.5x10^5 cells/35mm dish were seeded in Matrigel coated plates and expression was induced using doxycycline (1μg/ml) for 48 h. Cells were incubated with compounds for 24 h in serum containing media at 100μM final concentration with 0.5% DMSO. Where indicated, mCherry-BRCA1 tBRCT constructs were transiently transfected in a 4.5:1 ratio of Fugene:DNA and incubated in serum-containing media for 24 h (Fugene HD transfection reagent, Promega). Two h after 16 Gy IR, cells were washed in 1x PBS (pH 7.4) and fixed in 4% PFA at room temperature (RT) for 10’. Cells were mounted with Mowiol (without anti-fade) before imaging. The following excitation and emission wavelengths were used: Ex 402nm / Em 457nm for Tag-BFP; Ex 483nm / Em 506nm for Tag-GFP2 and Ex 594nm / Em 610nm for mCherry. […] Images acquired as noted below were quantified using HCS studio 2.0 (Thermo Fisher Scientific) to define nuclear morphology and average nuclear intensities.
For sensitized emission FRET measurements, images were acquired using a Zeiss epifluorescence microscope with Apotome using a 40x oil objective. […] Corrections for the extent of spectral cross-talk were calculated and applied as follows ([Müller et al., 2013]). […]

HEK293 cells = experiment: Cell cycle profiles by flow cytometry after 4 Gy (damage-induced G2 arrest); type: cell-based, human; conditions: 10–100 μM Bractoppin or 100 μM CCBT2047 added 0.5 hr before radiation
Description: HEK293 cells stably harboring plasmids for Tet-inducible expression of tBRCT domains were seeded on 12-well plates at 1.8 X10^5 cells/well. Cells were thymidine blocked and synchronously released into the cell cycle following irradiation at 4Gy, without or with exposure to compounds (at final concentrations with 0.5% DMSO) in serum-containing media for 16 h. Cells were re-suspended in 1x PBS, fixed with 80% ethanol, and permeabilized in buffer containing 0.1% Tween-20 in PBS (PBST), for 20’ at RT. DAPI staining was used to quantify nuclear DNA content. Analysis was performed using a Beckman Coulter Gallios analyzer, and quantified using the Dean-Jet algorithm in FlowJo software.

T2 sequence (P38398 1643-1862): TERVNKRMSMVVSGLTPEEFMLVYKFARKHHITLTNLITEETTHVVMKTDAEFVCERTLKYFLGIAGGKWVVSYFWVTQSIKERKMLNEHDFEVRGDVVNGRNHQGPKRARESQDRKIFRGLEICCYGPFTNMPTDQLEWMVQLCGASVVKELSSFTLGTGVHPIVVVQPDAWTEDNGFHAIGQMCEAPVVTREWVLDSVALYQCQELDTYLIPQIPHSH

O=C(c1ccc2nc(-c3ccccc3)[nH]c2c1)N1CCN(Cc2ccccc2F)CC1 [Bractoppin, (4-(2-fluorobenzyl)piperazin-1-yl) (2-phenyl-1H-benzo[d]imidazol-6-yl) methanone]
concentration at which cellular effects are elicited (cells): 10 to 100 µM
effect on radiation-induced recruitment of TOPBP1 (TOPBP1 foci): little effect
binding to fluorescently labeled MCPH1 tBRCT domain (MCPH1 tBRCT 2/3): does not detectably bind
effect on FRET efficiency of the biosensor [1]: inhibits FRET
effect on damage-induced G2 arrest (HEK293 cells): inhibited in a dose-dependent manner
